# Measured values published in patent US4113714A, “[Des-Ala^1, Gly^2 -desamino-Cys^3 ]somatostatin” (American Home Products Corporation, priority 1975, dated 1978).
# System: cultured rat pituitary cells
# Assay: in vitro inhibition of growth hormone secretion by cultured rat pituitary cells (radioimmunoassay)
# Type: cell-based
# Conditions: three hours at 37° C in Eagles medium, control 441±12
# Method: The activity of the undecapeptide of this invention was established in both in vitro and in vivo testing procedures, employing modifications of the techniques disclosed by Penso et al., Tissue Culture in Biological Research, Elsevier, 1963, p. 98; Berson et al., Metabolism, 13, 1135(1964).
# The in vitro tests were conducted by covering cultured rat pituitary cells contained in petri dishes with five milliliter portions of the undecapeptide, as its diacetate salt, in Eagles medium for three hours at 37° C. Three Petri dishes were employed for each solution concentration. The amount of growth hormone produced by the cultured pituitary cells is then compared with growth hormone produced by non-treated cells prepared in identical manner, via growth hormone radioimmunoassay. The difference between the growth hormone produced by treated and non-treated pituitary cells establishes the amount of inhibition by the compound under study.
# The cultured pituitary cells are prepared by excising and mincing rat pituitary glands followed by enzymatic separation of the cells (collagenase and hyaluronidase) and culture on synthetic nutrient media. When the cells attach themselves to the bottom of the plastic petri dish and cover the nutrient surface, they are washed with Eagles medium containing only inorganic salts, glucose and antibiotics in which state they are ready for use as above described.
# The activity of the undecapeptide of this invention was compared in vitro with somatostatin with the following results in which the concentration valves given are in nanograms/milliliter: […]
structure (smiles),measurement,setting,value
C[C@H](N)C(=O)NCC(=O)N[C@H]1CSSC[C@@H](C(=O)O)NC(=O)[C@H](CO)NC(=O)[C@H]([C@@H](C)O)NC(=O)[C@H](Cc2ccccc2)NC(=O)[C@H]([C@@H](C)O)NC(=O)[C@H](CCCCN)NC(=O)[C@H](Cc2c[nH]c3ccccc23)NC(=O)[C@H](Cc2ccccc2)NC(=O)[C@H](Cc2ccccc2)NC(=O)[C@H](CC(N)=O)NC(=O)[C@H](CCCCN)NC1=O [somatostatin],Growth Hormone Secreted,compound concentration 10 ng/ml,260 ± 8 ng/mL
same,Growth Hormone Secreted,compound concentration 50 ng/ml,271 ± 22 ng/mL
same,Growth Hormone Secreted,compound concentration 100 ng/ml,250 ± 13 ng/mL
